Four molecules from patent US8623856B2, “Phenoxy-azetidine derivatives as sphingosine 1-phosphate (S1P) receptor modulators” (Allergan, Inc., priority 2012, dated 2014) can be followed below.

The EC50 is the concentration that produces a half-maximal response.

T1 sequence (P21453 whole entry): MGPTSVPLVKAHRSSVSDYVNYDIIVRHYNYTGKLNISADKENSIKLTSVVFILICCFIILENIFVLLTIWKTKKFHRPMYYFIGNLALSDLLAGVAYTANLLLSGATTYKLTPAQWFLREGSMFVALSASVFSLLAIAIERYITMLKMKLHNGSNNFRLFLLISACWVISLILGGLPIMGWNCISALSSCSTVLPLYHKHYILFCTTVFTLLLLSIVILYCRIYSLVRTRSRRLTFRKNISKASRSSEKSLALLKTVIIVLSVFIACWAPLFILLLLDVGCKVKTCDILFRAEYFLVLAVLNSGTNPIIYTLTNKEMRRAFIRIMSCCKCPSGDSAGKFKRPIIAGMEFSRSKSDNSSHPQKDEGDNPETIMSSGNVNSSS

This assay has as its target T1, human S1P1 receptor (Homo sapiens, UniProt P21453).
T1 construct: expressed in transfected cells; host or cells: unnamed cell line stably expressing the S1P1 receptor; membranes were used
Kind of assay: GTP γ35S binding assay for S1P1 activity. The note with it: membranes of cells stably expressing the S1P1 receptor, agonist activity potency. It is filed as biochemical. As to the method: Compounds were synthesized and tested for S1P1 activity using the GTP γ^35S binding assay. These compounds may be assessed for their ability to activate or block activation of the human S1P1 receptor in cells stably expressing the S1P1 receptor. GTP γ^35S binding was measured in the medium containing (mM) HEPES 25, pH 7.4, MgCl2 10, NaCl 100, dithitothreitol 0.5, digitonin 0.003%, 0.2 nM GTP γ^35S, and 5 μg membrane protein in a volume of 150 μl. Test compounds were included in the concentration range from 0.08 to 5,000 nM unless indicated otherwise. Membranes were incubated with 100 μM 5′-adenylylimmidodiphosphate for 30 min, and subsequently with 10 μM GDP for 10 min on ice. Drug solutions and membrane were mixed, and then reactions were initiated by adding GTP γ^35S and continued for 30 min at 25° C. Reaction mixtures were filtered over Whatman GF/B filters under vacuum, and washed three times with 3 mL of ice-cold buffer (HEPES 25, pH7.4, MgCl2 10 and NaCl 100). Filters were dried and mixed with scintillant, and counted for ^35S activity using a β-counter. Agonist-induced GTP γ^35S binding was obtained by subtracting that in the absence of agonist. Binding data were analyzed using a non-linear regression method. In case of antagonist assay, the reaction mixture contained 10 nM S1P in the presence of test antagonist at concentrations ranging from 0.08 to 5000 nM.
Consider `Cc1ccc(CC(CCCOc2ccc(CN3CC(C(=O)O)C3)cc2)c2cc(F)cc(F)c2)cc1C` (stereo not shown) [1-(4-{[4-(3,5-difluorophenyl)-5-(3,4-dimethylphenyl)pentyl]oxy}benzyl)azetidine-3-carboxylic acid], for which the 50% effective concentration (EC50) was 1.4 nM.
Turning to `Cc1ccc(CC(CCCOc2ccc(CN3CC(C(=O)O)C3)cc2)c2cccc(F)c2F)cc1C` (stereo not shown) [1-(4-{([4-(2,3-difluorophenyl)-5-(3,4-dimethylphenyl)pentyl]oxy}benzyl)azetidine-3-carboxylic acid], the EC50 came out at 1.37 nM.
With `Cc1ccc(CC(CCOc2ccc(CN3CC(C(=O)O)C3)cc2)c2cccc(Cl)c2)cc1C` (stereo not shown) [1-{4-[3-(3-chlorophenyl)-4-(3,4-dimethylphenyl)butoxy]benzyl}azetidine-3-carboxylic acid] the figure was 50.2 nM; with `Cc1ccc(CC(CCCOc2ccc(CN3CC(C(=O)O)C3)cc2)c2ccsc2)cc1C` (stereo not shown) [1-(4-{[5-(3,4-dimethylphenyl)-4-(3-thienyl)pentyl]oxy}benzyl)azetidine-3-carboxylic acid], 5.7 nM.
